Experiments:
mice = assay: 9-day toxicity study in mice; format: in vivo; conditions: sesame oil, p.o. daily for 9 days
Method: In a second experiment, six additional compound differing only in the saturation or non-saturation of the C ring were tested for toxicity in mice by daily oral administration for 9 days, using sesame oil as the vehicle.

[1] = tested on: IFNγ-induced NO production in RAW264.7 macrophages; assay: Suppression of IFNγ-induced NO production (Griess reagent); format: cell-based, mouse; conditions: RAW264.7, 20 ng/ml IFNγ 24 h, 2 h pre-treatment
Method: (§1) FIGS. 1-8 and 32-34. Inhibition of NO Production. RAW264.7 macrophages were pre-treated with DMSO or drugs at various concentrations (nM) for 2 hours, then treated with 20 ng/ml IFNγ for 24 hours. NO concentration in media was determined using a Griess reagent system; cell viability was determined using WST-1 reagent.
(§2) Nitric Oxide production and cell viability. RAW264.7 macrophages were pre-treated with DMSO or drugs for 2 hours, then treated with recombinant mouse IFNγ (Sigma) for 24 hours. NO concentration in media was determined using the Griess reagent system (Promega). Cell viability was determined using WST-1 reagent (Roche).

RAW264.7 macrophages = assay: Cell viability, WST-1 reagent; format: cell-based, mouse; conditions: RAW264.7 (20 ng/ml IFNγ)
Method: as §1, §2

Row | Structure (SMILES) | Mortality (mice; 3 mg/kg) | Mortality (mice; 10 mg/kg) | Mortality (mice; 30 mg/kg) | IC50 [1] | IC50 (RAW264.7 macrophages) | IC50 ([1]; Mus musculus) | IC50 (RAW264.7 macrophages; Mus musculus)
1 | CONC(=O)[C@]12CCC(C)(C)C[C@H]1[C@H]1C(=O)C=C3[C@@]4(C)C=C(C#N)C(=O)C(C)(C)[C@@H]4CC[C@@]3(C)[C@]1(C)CC2 [Compound 63166, reference compound] | 0/5 | 0/5 | 0/5 |  |  |  | 
2 | COC(=O)[C@]12CCC(C)(C)C[C@H]1[C@H]1C(=O)C[C@@H]3[C@@]4(C)Cc5cnoc5C(C)(C)[C@@H]4CC[C@@]3(C)[C@]1(C)CC2 [Compound 63195] |  |  |  | > 200 nM | > 200 nM |  | 
3 | CC1(C)CC[C@]2(C(=O)NCC(F)(F)F)CC[C@]3(C)[C@H](C(=O)C[C@@H]4[C@@]5(C)Cc6cnoc6C(C)(C)[C@@H]5CC[C@]43C)[C@@H]2C1 [Compound 63223] |  |  |  | > 200 nM | > 200 nM |  | 
4 | CC1(C)CC[C@]2(C(=O)NCC(F)(F)F)CC[C@]3(C)[C@H](C(=O)C[C@@H]4[C@@]5(C)CC(C#N)C(=O)C(C)(C)[C@@H]5CC[C@]43C)[C@@H]2C1 (stereo partly drawn) [Compound 63227, (4aS,6aR,6bR,8aR,12aR,12bR,14aR,14bS)-11-cyano-2,2,6a,6b,9,9,12a-heptamethyl-10,14-dioxo-N-(2,2,2-trifluoroethyl)docosahydropicene-4a-carboxamide] |  |  |  |  |  | > 200 nM | > 200 nM
5 | CC1(C)CC[C@]2(c3nn[nH]n3)CC[C@]3(C)[C@H](C(=O)C[C@@H]4[C@@]5(C)C=C(C#N)C(=O)C(C)(C)[C@@H]5CC[C@]43C)[C@@H]2C1 [Compound 63229, (4aR,6aR,6bR,8aS,12aS,12bR,14aR,14bR)-4,4,6a,6b,11,11,14b-heptamethyl-3,13-dioxo-8a-(2H-tetrazol-5-yl)-3,4,4a,5,6,6a,6b,7,8,8a,9,10,11,12,12a,12b,13,14,14a,14b-icosahydropicene-2-carbonitrile] |  |  |  |  |  | > 200 nM | > 200 nM
6 | Cn1nnc([C@]23CCC(C)(C)C[C@H]2[C@H]2C(=O)C[C@@H]4[C@@]5(C)C=C(C#N)C(=O)C(C)(C)[C@@H]5CC[C@@]4(C)[C@]2(C)CC3)n1 [Compound 63230, (4aR,6aR,6bR,8aS,12aS,12bR,14aR,14bR)-4,4,6a,6b,11,11,14b-heptamethyl-8a-(2-methyl-2H-tetrazol-5-yl)-3,13-dioxo-3,4,4a,5,6,6a,6b,7,8,8a,9,10,11,12,12a,12b,13,14,14a,14b-icosahydropicene-2-carbonitrile] |  |  |  |  |  | ~50 nM | > 200 nM
7 | COC(=O)[C@]12CCC(C)(C)C[C@H]1[C@H]1C(=O)CC3[C@@]4(C)CC(C#N)=C(O)C(C)(C)[C@@H]4CC[C@@]3(C)[C@]1(C)CC2 (stereo partly drawn) [Compound 63250, (4aS,6aR,6bR,8aR,12aR,14aR,14bS)-methyl 11-cyano-10-hydroxy-2,2,6a,6b,9,9,12a-heptamethyl-14-oxo-1,2,3,4,4a,5,6,6a,6b,7,8,8a,9,12,12a,12b,13,14,14a,14b-icosahydropicene-4a-carboxylate] |  |  |  |  |  | > 200 nM | > 200 nM
8 | CC1(C)CC[C@]2(C(=O)NCC(F)(F)F)CC[C@]3(C)[C@H]([C@H](O)C[C@@H]4[C@@]5(C)C=C(C#N)C(=O)C(C)(C)[C@@H]5CC[C@]43C)[C@@H]2C1 [Compound 63268] |  |  |  | > 200 nM | > 200 nM |  | 
9 | Cc1nnc([C@]23CCC(C)(C)C[C@H]2[C@H]2C(=O)C[C@@H]4[C@@]5(C)C=C(C#N)C(=O)C(C)(C)[C@@H]5CC[C@@]4(C)[C@]2(C)CC3)s1 [Compound 63274, (4aR,6aR,6bR,8aS,12aS,12bR,14aR,14bR)-4,4,6a,6b,11,11,14b-heptamethyl-8a-(5-methyl-1,3,4-thiadiazol-2-yl)-3,13-dioxo-3,4,4a,5,6,6a,6b,7,8,8a,9,10,11,12,12a,12b,13,14,14a,14b-icosahydropicene-2-carbonitrile] |  |  |  |  |  | ~70 nM | > 200 nM
10 | COC(=O)[C@]12CCC(C)(C)C[C@H]1C1OC(O)C[C@@H]3[C@@]4(C)C=C(C#N)C(=O)C(C)(C)[C@@H]4CC[C@@]3(C)[C@]1(C)CC2 (stereo partly drawn) [Compound 63289, (4aR,6aR,6bS,8aS,12aR,15aR,15bR)-methyl 2-cyano-14-hydroxy-4,4,6a,6b,11,11,15b-heptamethyl-3-oxo-3,4,4a,5,6,6a,6b,7,8,8a,9,10,11,12,12a,12b,14,15,15a,15b-icosahydrodinaphtho[1,2-b:2′,1′-d]oxepine-8a-carboxylate] |  |  |  |  |  | > 200 nM | > 200 nM
11 | COC(=O)[C@]12CCC(C)(C)C[C@H]1[C@H]1C(=NO)C[C@@H]3[C@@]4(C)C=C(C#N)C(=O)C(C)(C)[C@@H]4CC[C@@]3(C)[C@]1(C)CC2 [Compound 63295, (4aS,6aR,6bR,8aR,12aR,12bR,14aR,14bS)-methyl 11-cyano-14-(hydroxyimino)-2,2,6a,6b,9,9,12a-heptamethyl-10-oxo-1,2,3,4,4a,5,6,6a,6b,7,8,8a,9,10,12a,12b,13,14,14a,14b-icosahydropicene-4a-carboxylate] |  |  |  |  |  | ~20 nM | > 200 nM
12 | COC(=O)[C@]12CCC(C)(C)C[C@H]1[C@H]1NC(=O)C[C@@H]3[C@@]4(C)C=C(C#N)C(=O)C(C)(C)[C@@H]4CC[C@@]3(C)[C@]1(C)CC2 [Compound 63296, (4aR,6aR,6bS,8aS,12aR,12bR,15aR,15bR)-methyl 2-cyano-4,4,6a,6b,11,11,15b-heptamethyl-3,14-dioxo-4,4a,5,6,6a,6b,7,8,8a,9,10,11,12,12a,12b,13,14,15,15a,15b-icosahydro-3H-dinaphtho[1,2-b:2′,1′-d]azepine-8a-carboxylate] |  |  |  |  |  | ~200 nM | > 200 nM
13 | CC(=O)[C@]12CCC(C)(C)C[C@H]1[C@H]1C(=O)C[C@@H]3[C@@]4(C)C=C(C#N)C(=O)C(C)(C)[C@@H]4CC[C@@]3(C)[C@]1(C)CC2 [Compound 63308, (4aR,6aR,6bR,8aS,12aS,12bR,14aR,14bR)-8a-acetyl-4,4,6a,6b,11,11,14b-heptamethyl-3,13-dioxo-3,4,4a,5,6,6a,6b,7,8,8a,9,10,11,12,12a,12b,13,14,14a,14b-icosahydropicene-2-carbonitrile] |  |  |  |  |  | ~25 nM | > 200 nM
14 | CC1(C)CC[C@]2(C(=O)OCc3ccccc3)CC[C@]3(C)[C@H](C(=O)C[C@@H]4[C@@]5(C)C=C(C#N)C(=O)C(C)(C)[C@@H]5CC[C@]43C)[C@@H]2C1 [Compound 63323, (4aS,6aR,6bR,8aR,12aR,12bR,14aR,14bS)-benzyl 11-cyano-2,2,6a,6b,9,9,12a-heptamethyl-10,14-dioxo-1,2,3,4,4a,5,6,6a,6b,7,8,8a,9,10,12a,12b,13,14,14a,14b-icosahydropicene-4a-carboxylate] | 0/5 | 0/5 | 0/5 |  |  | ~40 nM | 
15 | CN(C)C(=O)[C@]12CCC(C)(C)C[C@H]1[C@H]1C(=O)C=C3[C@@]4(C)C=C(C#N)C(=O)C(C)(C)[C@@H]4CC[C@@]3(C)[C@]1(C)CC2 [Compound 63324, reference compound] | 0/5 | 0/5 | 0/5 |  |  |  | 
16 | CONC(=O)[C@]12CCC(C)(C)C[C@H]1[C@H]1C(=O)C[C@@H]3[C@@]4(C)C=C(C#N)C(=O)C(C)(C)[C@@H]4CC[C@@]3(C)[C@]1(C)CC2 [Compound 63325, (4aS,6aR,6bR,8aR,12aR,12bR,14aR,14bS)-11-cyano-N-methoxy-2,2,6a,6b,9,9,12a-heptamethyl-10,14-dioxo-1,2,3,4,4a,5,6,6a,6b,7,8,8a,9,10,12a,12b,13,14,14a,14b-icosahydropicene-4a-carboxamide] | 0/5 | 0/5 | 0/5 |  |  | ~50 nM | 
17 | CN(C)C(=O)[C@]12CCC(C)(C)C[C@H]1[C@H]1C(=O)C[C@@H]3[C@@]4(C)C=C(C#N)C(=O)C(C)(C)[C@@H]4CC[C@@]3(C)[C@]1(C)CC2 [Compound 63326, (4aS,6aR,6bR,8aR,12aR,12bR,14aR,14bS)-11-cyano-N,N,2,2,6a,6b,9,9,12a-nonamethyl-10,14-dioxo-1,2,3,4,4a,5,6,6a,6b,7,8,8a,9,10,12a,12b,13,14,14a,14b-icosahydropicene-4a-carboxamide] | 0/5 | 1/5 | 0/5 |  |  | ~50 nM | 

— US7915402B2, “Antioxidant inflammation modulators: oleanolic acid derivatives with saturation in the C-ring” (Reata Pharmaceuticals, Inc., priority 2008, dated 2011)
